Measured values: patent US20240239748A1, “NOVEL FORMS OF ENTINOSTAT” (Macfarlan Smith Limited, priority 2021, published 2024)
Values after ≈ are worked out from the molar mass of the structure shown. Where two headings read alike, the source gives them in different places.

What was measured:
[1] = Experimental: XRPD diffractograms are collected on a Bruker D8 diffractometer using Cu Ka radiation (40 kV, 40 mA) and a 0-20 goniometer fitted with a Ge monochromator. The incident beam passes through a 2.0 mm divergence slit followed by a 0.2 mm anti-scatter slit and knife edge. The diffracted beam passes through an 8.0 mm receiving slit with 2.5° Soller slits followed by the Lynxeye Detector. The software used for data collection and analysis is Diffrac Plus XRD Commander and Diffrac Plus EVA respectively. Samples are run under ambient conditions as flat plate specimens using powder as received. The sample is prepared on a polished, zero-background (510) silicon wafer by gently pressing onto the flat surface or packed into a cut cavity. The sample is rotated in its own plane.
The details of the standard data collection method are: • Angular range: 2 to 42° 20 • Step size: 0.05° 20 • Collection time: 0.5 s/step (total collection time: 6.40 min)

[2] = remark: listed apart in the source
Experimental: Sorption isotherms are obtained using a Hiden IGASorp moisture sorption analyser, controlled by Isochema HISorp software. The sample temperature is maintained at 25° C. by a Grant LT ecocool 150 re-circulating water bath. The humidity is controlled by mixing streams of dry and wet nitrogen, with a total flow rate of 250 ml/min. The relative humidity is measured by a calibrated Vaisala RH probe (dynamic range of 0-95% RH), located near the sample. The weight change, (mass relaxation) of the sample as a function of % RH is constantly monitored by the microbalance (accuracy±0.001 mg). Typically, 20-30 mg of sample is placed in a tared mesh stainless steel basket under ambient conditions. The sample is loaded and unloaded at 40% RH and 25° C.(typical room conditions). A moisture sorption isotherm is performed as outlined below (2 scans, giving 1 complete cycle). The standard isotherm is performed at 25° C. at 10% RH intervals over a 0-90% RH range.

[3] = 4 hour solubility in buffered media (HPLC quantitation); type: physicochemical; settings: thermodynamic from solid, 25° C.
Experimental: Sufficient sample is suspended in 1.0 ml media for a maximum anticipated concentration of about 10 mg/ml of the free form of the compound. The resulting suspensions are then shaken at 25° C./750 rpm for 4 hours. The pH of the sample solutions is checked after 1 hour to ensure that the desired pH is maintained throughout (+0.2). After equilibration, the appearance is noted, and the final pH of the saturated solution is measured. Samples are then filtered through a glass ‘C’ fibre filter (Particle retention size 1.2 μm), before dilution with buffer as appropriate. Quantitation is by HPLC with reference to a standard solution of approximately 0.15 mg/ml. Different volumes of the standard, diluted and undiluted sample solutions are injected.
The HPLC method for solubility measurements is as follows:
Analysis is performed on an Agilent HP1100/Infinity II 1260 series system equipped with a diode array detector and using OpenLAB software.

Nc1ccccc1NC(=O)c1ccc(CNC(=O)OCc2cccnc2)cc1.O=C(O)C=CC(=O)O
stability of crystalline form (no change in form by XRPD) ([1]; 40° C./75% RH): stable at 40° C./75% RH for at least two weeks

Nc1ccccc1NC(=O)c1ccc(CNC(=O)OCc2cccnc2)cc1.O=C(O)CCC(=O)O [Form A of entinostat compound with succinic acid]
time the form remains stable, as evidenced by XRPD ([1]; 25° C./97% RH): at least 28 days
time the form remains stable, as evidenced by XRPD ([1]; 40° C./75% RH): at least 28 days
reversible water uptake by GVS ([2]; 25° C., 0-90% RH): ~0.5 wt %
post GVS XRPD, change of crystalline form ([2]; after GVS cycle): no change in crystalline form

Nc1ccccc1NC(=O)c1ccc(CNC(=O)OCc2cccnc2)cc1.O=C(O)CCC(=O)O [Form B of entinostat compound with succinic acid]
time the form remains stable, as evidenced by XRPD ([1]; 40° C./75% RH): at least 7 days

Nc1ccccc1NC(=O)c1ccc(CNC(=O)OCc2cccnc2)cc1.O=C(O)CCC(=O)O [Form C of entinostat compound with succinic acid]
time the form remains stable, as evidenced by XRPD ([1]; 40° C./75% RH): at least 7 days

Nc1ccccc1NC(=O)c1ccc(CNC(=O)OCc2cccnc2)cc1 [U.S. Pat. No. 7,973,166 Polymorph A, N-(2-aminophenyl)-4-[N-(pyridine-3-yl)-methoxycarbonylamino-methyl]-benzamide]
solubility at 4 h ([3]; aqueous buffer, pH 4.5 acetate buffer): 190 µg/mL (≈ 505 µM)
solubility at 4 h ([3]; aqueous buffer, pH 6.8 phosphate buffer): 75 µg/mL (≈ 199 µM)
solubility at 4 h ([3]; aqueous buffer, pH 7.5 phosphate buffer): 72 µg/mL (≈ 191 µM)
solubility at 4 h ([3]; buffer pH 2.8, aqueous buffer, pH 2.8 buffer): 5900 µg/mL (≈ 15700 µM)
solubility at 4 h ([3]; simulated gastric fluid, pH 1.2 hydrochloric acid buffer): > 7900 µg/mL
